According to ChEMBL document CHEMBL3232945 (Eur J Med Chem, 2014):

Tests used:
[1] = tested on: Rattus norvegicus; test: Toxicity in anesthetized-normotensive Wistar rat assessed as heart rate at 40 mg/kg, ip after 60 mins (reference value: 314.96 +/- 9.442 bpm); format: organism-based; set-up: dose 40 mg/kg, route intraperitoneal; conditions: in vivo, 1 h
[2] = tested on: Rattus norvegicus; test: Antiarrhythmic activity in barium chloride-induced Wistar rat assessed as increase in mortality time at 40 mg/kg, ip administered 60 mins before barium chloride challenge (reference value: 682.8 +/- 9.656 secs); format: functional, Heart; conditions: route intraperitoneal
[3] = tested on: Rattus norvegicus; test: Toxicity in anesthetized-normotensive Wistar rat assessed as heart rate at 40 mg/kg, ip after 15 mins (reference value: 313.93 +/- 9.912 bpm); format: organism-based; set-up: dose 40 mg/kg, route intraperitoneal; conditions: in vivo, 0.25 h
[4] = tested on: Rattus norvegicus; test: Toxicity in anaesthetized-Wistar rat assessed as QRS ECG interval at 40 mg/kg, ip after 15 mins (reference value: 18.9 +/- 1.563 ms); format: organism-based; set-up: dose 40 mg/kg, route intraperitoneal; conditions: in vivo, 0.25 h
[5] = tested on: Rattus norvegicus; test: Antihypertensive activity in Wistar rat assessed as mean arterial pressure at 40 mg/kg, ip after 30 mins (reference value: 194.72 +/- 1.002 mmHg); format: functional, Artery; conditions: route intraperitoneal
[6] = tested on: Rattus norvegicus; test: Toxicity in anaesthetized-Wistar rat assessed as QRS ECG interval at 40 mg/kg, ip measured immediately at 0 min (reference value: 19.6 +/- 1.142 ms); format: organism-based; set-up: dose 40 mg/kg, route intraperitoneal; conditions: in vivo, 0 h
[7] = tested on: Rattus norvegicus; test: Toxicity in anesthetized-normotensive Wistar rat assessed as heart rate at 40 mg/kg, ip measured immediately at 0 min (reference value: 316.62 +/- 9.643 bpm); format: organism-based; set-up: dose 40 mg/kg, route intraperitoneal; conditions: in vivo, 0 h
[8] = tested on: Rattus norvegicus; test: Antihypertensive activity in Wistar rat assessed as mean arterial pressure at 40 mg/kg, ip after 60 mins (reference value: 195.11 +/- 0.531 mmHg); format: functional, Artery; conditions: route intraperitoneal
[9] = tested on: Rattus norvegicus; test: Toxicity in anaesthetized-Wistar rat assessed as Q-T ECG interval at 40 mg/kg, ip after 15 mins (reference value: 79.4 +/- 1.270 ms); format: organism-based; set-up: dose 40 mg/kg, route intraperitoneal; conditions: in vivo, 0.25 h
[10] = tested on: Rattus norvegicus; test: Toxicity in anaesthetized-Wistar rat assessed as P-Q ECG interval at 40 mg/kg, ip measured immediately at 0 min (reference value: 52.4 +/- 0.927 ms); format: organism-based; set-up: dose 40 mg/kg, route intraperitoneal; conditions: in vivo, 0 h
[11] = tested on: Rattus norvegicus; test: Antiarrhythmic activity in barium chloride-induced Wistar rat assessed as increase in appearance time of arrhythmia at 40 mg/kg, ip administered 60 mins before barium chloride challenge (reference value: 129.4 +/- 4.373 sec); format: functional, Heart; conditions: route intraperitoneal
[12] = tested on: Rattus norvegicus; test: Toxicity in […] normotensive Wistar rat assessed as mean arterial pressure at 40 mg/kg, ip after 60 mins (reference value: 95.07 +/- 1.973 mmHg); format: organism-based, Artery; set-up: dose 40 mg/kg, route intraperitoneal; conditions: in vivo, 1 h
[13] = tested on: Rattus norvegicus; test: Toxicity in anaesthetized-Wistar rat assessed as Q-T ECG interval at 40 mg/kg, ip after 45 mins (reference value: 78.8 +/- 0.927 ms); format: organism-based; set-up: dose 40 mg/kg, route intraperitoneal; conditions: in vivo, 0.75 h
[14] = tested on: Rattus norvegicus; test: Toxicity in anaesthetized-Wistar rat assessed as QRS ECG interval at 40 mg/kg, ip after 60 mins (reference value: 19.3 +/- 0.873 ms); format: organism-based; set-up: dose 40 mg/kg, route intraperitoneal; conditions: in vivo, 1 h
[15] = tested on: Rattus norvegicus; test: Toxicity in anaesthetized-Wistar rat assessed as P-Q ECG interval at 40 mg/kg, ip after 45 mins (reference value: 52.5 +/- 0.780 ms); format: organism-based; set-up: dose 40 mg/kg, route intraperitoneal; conditions: in vivo, 0.75 h
[16] = tested on: Rattus norvegicus; test: Toxicity in […] normotensive Wistar rat assessed as mean arterial pressure at 40 mg/kg, ip after 30 mins (reference value: 94.68 +/- 1.213 mmHg); format: organism-based, Artery; set-up: dose 40 mg/kg, route intraperitoneal; conditions: in vivo, 0.5 h
[17] = tested on: Rattus norvegicus; test: Toxicity in anaesthetized-Wistar rat assessed as Q-T ECG interval at 40 mg/kg, ip after 60 mins (reference value: 79.7 +/- 0.965 ms); format: organism-based; set-up: dose 40 mg/kg, route intraperitoneal; conditions: in vivo, 1 h
[18] = tested on: Rattus norvegicus; test: Toxicity in anesthetized-normotensive Wistar rat assessed as heart rate at 40 mg/kg, ip after 45 mins (reference value: 316.82 +/- 8.452 bpm); format: organism-based; set-up: dose 40 mg/kg, route intraperitoneal; conditions: in vivo, 0.75 h
[19] = tested on: Rattus norvegicus; test: Antihypertensive activity in Wistar rat assessed as mean arterial pressure at 40 mg/kg, ip after 15 mins (reference value: 195.68 +/- 1.623 mmHg); format: functional, Artery; conditions: route intraperitoneal
[20] = tested on: Rattus norvegicus; test: Toxicity in […] normotensive Wistar rat assessed as mean arterial pressure at 40 mg/kg, ip after 45 mins (reference value: 94.83 +/- 0.943 mmHg); format: organism-based, Artery; set-up: dose 40 mg/kg, route intraperitoneal; conditions: in vivo, 0.75 h
[21] = tested on: Rattus norvegicus; test: Toxicity in anaesthetized-Wistar rat assessed as P-Q ECG interval at 40 mg/kg, ip after 30 mins (reference value: […] +/- 0.927 ms); format: organism-based; set-up: dose 40 mg/kg, route intraperitoneal; conditions: in vivo, 0.5 h
[22] = tested on: Rattus norvegicus; test: Antihypertensive activity in Wistar rat assessed as mean arterial pressure at 40 mg/kg, ip measured immediately at 0 min (reference value: 194.08 +/- 1.962 mmHg); format: functional, Artery; conditions: route intraperitoneal
[23] = tested on: Rattus norvegicus; test: Toxicity in […] normotensive Wistar rat assessed as mean arterial pressure at 40 mg/kg, ip measured immediately at 0 min (reference value: 94.21 +/- 2.065 mmHg); format: organism-based, Artery; set-up: dose 40 mg/kg, route intraperitoneal; conditions: in vivo, 0 h
[24] = tested on: Rattus norvegicus; test: Toxicity in anaesthetized-Wistar rat assessed as P-Q ECG interval at 40 mg/kg, ip after 60 mins (reference value: […] +/- 0.924 ms); format: organism-based; set-up: dose 40 mg/kg, route intraperitoneal; conditions: in vivo, 1 h
[25] = tested on: Rattus norvegicus; test: Toxicity in anaesthetized-Wistar rat assessed as Q-T ECG interval at 40 mg/kg, ip after 30 mins (reference value: 78.3 +/- 0.860 ms); format: organism-based; set-up: dose 40 mg/kg, route intraperitoneal; conditions: in vivo, 0.5 h
[26] = tested on: Rattus norvegicus; test: Toxicity in anaesthetized-Wistar rat assessed as QRS ECG interval at 40 mg/kg, ip after 45 mins (reference value: 20.2 +/- 1.348 ms); format: organism-based; set-up: dose 40 mg/kg, route intraperitoneal; conditions: in vivo, 0.75 h
[27] = tested on: Rattus norvegicus; test: Toxicity in […] normotensive Wistar rat assessed as mean arterial pressure at 40 mg/kg, ip after 15 mins (reference value: 93.81 +/- 1.543 mmHg); format: organism-based, Artery; set-up: dose 40 mg/kg, route intraperitoneal; conditions: in vivo, 0.25 h
[28] = tested on: Rattus norvegicus; test: Toxicity in anaesthetized-Wistar rat assessed as QRS ECG interval at 40 mg/kg, ip after 30 mins (reference value: 19.9 +/- 1.393 ms); format: organism-based; set-up: dose 40 mg/kg, route intraperitoneal; conditions: in vivo, 0.5 h
[29] = tested on: Rattus norvegicus; test: Toxicity in anaesthetized-Wistar rat assessed as P-Q ECG interval at 40 mg/kg, ip after 15 mins (reference value: 52.2 +/- 1.158 ms); format: organism-based; set-up: dose 40 mg/kg, route intraperitoneal; conditions: in vivo, 0.25 h
[30] = tested on: Rattus norvegicus; test: Toxicity in anaesthetized-Wistar rat assessed as Q-T ECG interval at 40 mg/kg, ip measured immediately at 0 min (reference value: 78.8 +/- 1.030 ms); format: organism-based; set-up: dose 40 mg/kg, route intraperitoneal; conditions: in vivo, 0 h
[31] = tested on: Rattus norvegicus; test: Antihypertensive activity in Wistar rat assessed as mean arterial pressure at 40 mg/kg, ip after 45 mins (reference value: 193.96 +/- 0.865 mmHg); format: functional, Artery; conditions: route intraperitoneal
[32] = tested on: Rattus norvegicus; test: Toxicity in anesthetized-normotensive Wistar rat assessed as heart rate at 40 mg/kg, ip after 30 mins (reference value: 317.68 +/- 7.631 bpm); format: organism-based; set-up: dose 40 mg/kg, route intraperitoneal; conditions: in vivo, 0.5 h

Row | SMILES | Activity [1] | Time [2] | Activity [3] | Activity [4] | Activity [5] | Activity [6] | Activity [7] | Activity [8] | Activity [9] | Activity [10] | Time [11] | Activity [12] | Activity [13] | Activity [14] | Activity [15] | Activity [16] | Activity [17] | Activity [18] | Activity [19] | Activity [20] | also measured
1 | O=C1/C(=C\c2ccccc2)S/C(=N\c2ccccc2)N1CC(O)CN1CCNCC1 (stereo unspecified) | 298.12 bpm | 1380.5 s | 292.46 bpm | 21.6 min | 153.16 mmHg | 20.8 min | 302.12 bpm | 159.08 mmHg | 80.6 min | 54.3 ms | 379.7 s | 70.27 mmHg | 82.4 min | 22.4 min | 56.9 min | 62.26 mmHg | 82.1 ms | 269.73 bpm | 176.65 mmHg | 62.53 mmHg | Activity [21]: 56.4 min; Activity [22]: 196.63 mmHg; Activity [23]: 92.33 mmHg; Activity [24]: 55.1 min; Activity [25]: 81.8 min; Activity [26]: 23.7 min; Activity [27]: 78.76 mmHg; Activity [28]: 23.8 ms; Activity [29]: 54.7 min; Activity [30]: 80.2 min; Activity [31]: 128.32 mmHg; Activity [32]: 259.31 bpm
2 | CC(C)N1CCN(CC(O)CN2C(=O)/C(=C\c3ccccc3)S/C2=N\c2ccccc2)CC1 (stereo unspecified) | 302.92 bpm | 1213.7 s | 298.46 bpm | 23.7 min | 161.56 mmHg | 23.3 min | 310.34 bpm | 160.84 mmHg | 76.2 min | 53.5 ms | 354.8 s | 76.27 mmHg | 77.1 min | 24.8 min | 55.2 min | 62.08 mmHg | 77.4 ms | 253.26 bpm | 185.53 mmHg | 65.43 mmHg | Activity [21]: 54.1 min; Activity [22]: 193.37 mmHg; Activity [23]: 92.09 mmHg; Activity [24]: 55.6 min; Activity [25]: 76.6 min; Activity [26]: 24.6 min; Activity [27]: 79.32 mmHg; Activity [28]: 24.1 ms; Activity [29]: 53.9 min; Activity [30]: 76 min; Activity [31]: 146.51 mmHg; Activity [32]: 272.41 bpm
3 | O=C1/C(=C\c2ccccc2)S/C(=N\c2ccccc2)N1CC(O)CN1CCN(c2ccccc2)CC1 (stereo unspecified) | 301.92 bpm | 964.4 s | 309.46 bpm | 22.2 min | 146.27 mmHg | 21.8 min | 318.34 bpm | 182.32 mmHg | 73.9 min | 52.4 ms | 285.4 s | 83.55 mmHg | 74.9 min | 24.7 min | 53.9 min | 76.84 mmHg | 75 ms | 287.25 bpm | 180.43 mmHg | 79.26 mmHg | Activity [21]: 53.3 min; Activity [22]: 194.87 mmHg; Activity [23]: 94.56 mmHg; Activity [24]: 54.2 min; Activity [25]: 74.2 min; Activity [26]: 24.1 min; Activity [27]: 86.43 mmHg; Activity [28]: 23.5 ms; Activity [29]: 52.7 min; Activity [30]: 73.5 min; Activity [31]: 156.09 mmHg; Activity [32]: 295.41 bpm
